For orientation: Ki means the equilibrium dissociation constant of an inhibitor or competing ligand from its target. A low value points to a stronger hold on the target. The term IC50 denotes the midpoint of a concentration-inhibition curve.

In patent publication US5434186A, “Carboxylic acid leukotriene B4 antagonists” (Hoffmann-La Roche Inc., priority 1993, dated 1995) one finds ED50, Ki and IC50 data, which are given here for 20 compounds.

In test [1] the test system is LTB4 -induced bronchoconstriction. The test can be described thus: Guinea Pig Bronchoconstriction In Vivo (LTB4-induced). The arrangement: species or system guinea pig (Hartley strain). The following applies: Cavia porcellus, po, read-out: ID50 (mg/kg), p.o., LTB4-induced bronchoconstriction.
Test [2] has the same test system. The description is as above. The arrangement: species or system guinea pig (Hartley strain). The conditions noted are these: Cavia porcellus, iv, i.v. five minutes prior to LTB4 (1 μg/kg i.v.), read-out: ID50 (mg/kg), i.v., LTB4-induced bronchoconstriction. As to the method:
Male guinea pigs (Hartley strain) weighing 300 to 500 g are anesthetized with urethane (2 g/kg) intraperitoneally and a polyethylene cannula is inserted into the jugular vein for drug administration. Tracheal pressure is recorded from a cannula inserted into the trachea and connected to a Gould P23ID pressure transducer. After surgical preparation of the animals, a period of time is allowed for pulmonary functions to stabilize. The test compound is administered intravenously five minutes prior to leukotriene B4 administration according to the following protocol: Animals are paralyzed with succinylcholine (1.2 mg/kg i.v.) and mechanically respirated (Harvard rodent respirator) at 40 breaths/minute and 2.5 cc tidal volume. Propranolol (0.1 mg/kg) is then administered intravenously one minute prior to leukotriene B4 administration. Animals are then challenged with an intermediate constrictory dose of leukotriene B4 (1 μg/kg) delivered intravenously.
The change (cm H2 O) between pre and peak ventilatory pressure readings is averaged for five control and five drug treated animals. The percent inhibition is calculated from the formula:
((Control-Drug Treated)/Control)×100
When representative compounds of formula I of the invention were utilized as the test compounds the following results were obtained: […]

Another test has as its target T1, LTB4 Receptor (Homo sapiens, UniProt Q15722).
T1 construct: Isolated human neutrophils in Gey's salt solution; endogenous in cells; host or cells: human neutrophils isolated from blood (90-95% neutrophils)
The test can be described thus: LTB4 Receptor Binding Assay (inhibition of 3H-LTB4 binding, human neutrophils). The conditions noted are these: 0.5 nM 3H-LTB4, 45 minutes on ice, isolated human neutrophils. How it is done:
Binding assays can be performed in microtiter wells. Isolated human neutrophils in Gey's salt solution are incubated on ice for 45 minutes with 0.5 nM ^3 H-LTB4 in the presence or absence of test compounds. Assays are terminated by adding 12 ml ice cold 50 mM Tris (pH 7.4) followed by rapid filtration under vacuum through GF/C filters. Radioactivity is determined by scintillation counting. Non specific binding is defined as the binding not displaced by 100 fold excess of unlabelled LTB4. Specific binding is defined as the difference between total binding and non-specific binding. Non linear analysis of the binding data is performed using LIGAND (Munson and Rodbard, 1980). Ki (Inhibition Constant) values were determined using the Cheng-Prusoff relationship (Cheng and Prusoff, 1973).
(§1) Human neutrophils are prepared from citrated or heparinized blood. The blood was diluted 1:1 with Hank's balanced salt solution (HBSS) minus calcium and magnesium and underlayed with 10 ml lymphocyte separation medium (Organon Teknika), followed by centrifugation at 500× g for 30 min., at room temperature. Supernatants are removed down to the red blood cell pellet. HBSS minus calcium and magnesium are added to give 25 ml. To this are added 25 ml 6% dextran in 0.85% NaCl. Samples are mixed and allowed to stand 20 min at room temperature. Supernatants are removed and centrifuged at 500× g for 5 min at 4° C. Pellets are resuspended with 20 ml 0.2% saline for 20 sec followed by the addition of 20 ml 1.6% saline. Samples are centrifuged at 500× g for 5 min at 4° C. The lysis is repeated and the cells (90-95% neutrophils) are resuspended at 2× 10^6 cell/ml in GEY's salt solution.

For test [3], the system named is LTB4 mediated calcium fluxes in human neutrophils. The test can be described thus: Calcium Flux Assay (inhibition of LTB4 mediated calcium fluxes in human neutrophils). The class given is cell-based. The conditions noted are these: Neutrophil; Fura2 labelled human neutrophils, 2.4 nM LTB4. As to the method: as §1
LTB4 induced changes in intracellular calcium concentration are measured using Fura2 labelled human neutrophils. Cells at a concentration of 2-5×10^6 /ml are labelled with 5 μM Fura2 for 30 minutes in Hank's balanced salt solution without calcium and magnesium. The cells are washed and resuspended at a final concentration of 1-2×10^7 cells/ml in Gey's solution. Calcium fluxes are initiated by the addition of 2.4 nM LTB4. Test compounds at appropriate concentrations are added to the cells just prior to the addition of LTB4. […] Fluorescence measurements are made in a Perkin Elmer model LS-5B spectrofluorimeter at a temperature setting of 37° C. Calcium concentrations are determined using the ratio method (ratio of cell fluorescence to media fluorescence).
When representative compounds of formula I of the invention were tested, the results set forth in Table H and expressed as inhibition of LTB4 mediated calcium fluxes in human neutrophils, were obtained.

Like-named read-outs stand apart in the source and are kept apart here.

T1 sequence (Q15722 whole entry): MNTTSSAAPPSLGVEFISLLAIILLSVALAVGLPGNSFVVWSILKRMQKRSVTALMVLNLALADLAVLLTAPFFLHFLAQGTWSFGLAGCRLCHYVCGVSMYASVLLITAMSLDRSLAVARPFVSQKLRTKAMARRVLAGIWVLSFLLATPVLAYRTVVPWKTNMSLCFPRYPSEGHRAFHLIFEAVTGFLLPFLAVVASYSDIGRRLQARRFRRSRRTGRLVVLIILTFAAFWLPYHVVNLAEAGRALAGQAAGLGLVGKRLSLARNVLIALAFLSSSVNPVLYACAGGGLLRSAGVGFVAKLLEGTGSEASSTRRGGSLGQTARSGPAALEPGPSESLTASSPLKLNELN

With `CCCc1c(OCCCCCCc2ccccc2CCC(=O)O)ccc2c1OCCC2=O` [Example 37, 2-[6-[(3,4-Dihydro-4-oxo-8-propyl-2H-1-benzopyran-7-yl)oxy]hexyl]benzenepropanoic Acid], the ED50 in test [1] is more than 10 mg/kg; in test [2], 0.45 mg/kg.
For the compound `CCCc1c(OCCCCCOc2ccccc2CCCC(=O)O)ccc2c1OCCC2=O` [Example 145, 2-[5-[(3,4-Dihydro-4-oxo-8-propyl-2H-1-benzopyran-7-yl)oxy]pentyloxy]benzenebutanoic Acid], the results for the ED50 in test [1] and in test [2] were more than 10 mg/kg and 0.56 mg/kg, respectively. In addition, the affinity on LTB4 Receptor, expressed as Ki, was 30 nM.
For `CCCc1c(OCCCCCOc2cc3c(cc2C(C)=O)CCC(C(=O)O)O3)ccc2c1OCCC2=O` (racemic) [Example 11, rac-6-Acetyl-7-[5-[(3,4-dihydro-4-oxo-8-propyl-2H-1-benzopyran-7-yl)oxy]pentyloxy]-3,4-dihydro-2H-1-benzopyran-2-carboxylic Acid], the IC50 in test [3] was found to be 300 nM.
Consider `O=C(O)CCc1ccccc1OCCCCCOc1ccc2c(c1CCCc1ccccc1)OCCC2=O` [Example 195, 2-[[5-[[3,4-Dihydro-4-oxo-8-(3-phenylpropyl)-2H-1-benzopyran-7-yl]oxy]pentyl]oxy]benzenepropanoic Acid], for which the ED50 in test [1] amounted to 5.8 mg/kg; in test [2] it was 0.04 mg/kg. Also, the Ki on LTB4 Receptor came to 95 nM.
In the same order, the values of `CCCCCc1c(OCCCCCOc2ccccc2CCC(=O)O)ccc2c1OCCC2=O` [Example 118, 2-[5-[(3,4-Dihydro-4-oxo-8-pentyl-2H-1-benzopyran-7-yl)oxy]pentyloxy]benzenepropanoic Acid] are more than 10 mg/kg, 0.18 mg/kg and 607 nM.
For `CCCc1c(OCCCCCCc2cccc(OCCCC(C)(C)C(=O)O)c2CCC(=O)O)ccc2c1OCCC2=O` [Example 174, 2-[(4-Carboxy-4-methylpentyl)oxy]-6-[6-[(3,4-dihydro-4-oxo-8-propyl-2H-1-benzopyran-7-yl)oxy]hexyl]benzenepropanoic Acid] the same measures were 1.1 mg/kg, 0.22 mg/kg and 1 nM.
`CCCc1c(OCCCCCOc2ccc3cc(OCC(=O)O)ccc3c2CCC(=O)O)ccc2c1OCCC2=O` [Example 231, 6-(Carboxymethoxy)-2-[[5-[(3,4-dihydro-4-oxo-8-propyl-2H-1-benzopyran-7-yl)oxy]pentyl]oxy]-1-naphthalenepropanoic Acid] showed a Ki on LTB4 Receptor of 0.8 nM. The ED50 in test [2] was 1.36 mg/kg.
At LTB4 Receptor, `CCCc1c(OCc2cccc(COc3ccccc3CCC(=O)O)c2)ccc2c1OCCC2=O` [Example 39, 2-[3-[[(3,4-Dihydro-4-oxo-8-propyl-2H-1-benzopyran-7-yl)oxy]methyl]phenylmethoxy]benzenepropanoic Acid] came in with a Ki of 100 nM. The ED50 in test [2] was 5.4 mg/kg.
For `CCCc1c(OCCCCCOc2ccc(OCCCC(=O)O)cc2CCC(=O)O)ccc2c1OCCC2=O` [Example 47, 5-(3-Carboxypropoxy)-2-[5-[(3,4-dihydro-4-oxo-8-propyl-2H-1-benzopyran-7-yl)oxy]pentyloxy]benzenepropanoic Acid] the same measures were 3 nM and 3.66 mg/kg.
In the same order, the values of `CCCc1c(OCCCCCOc2ccc3ccc(OCC(=O)O)cc3c2CCC(=O)O)ccc2c1OCCC2=O` [Example 226, 7-(Carboxymethoxy)-2-[[5-[(3,4-dihydro-4-oxo-8-propyl-2H-1-benzopyran-7-yl)oxy]pentyl]oxy]-1-naphthalenepropanoic Acid] are 1 nM and 4.4 mg/kg.
In the same order, the values of `CCCc1c(OCCCCCOc2ccc(C(=O)CCC(=O)O)cc2CCC(=O)O)ccc2c1OCCC2=O` [Example 89, 3-(2-Carboxyethyl)-4-[5-[(3,4-dihydro-4-oxo-8-propyl-2H-1-benzopyran-7-yl)oxy]pentyloxy]-γ-oxobenzenebutanoic Acid] are 4 nM and 4.33 mg/kg.
The compound `CCCc1c(OCCCCCOc2ccc(CCC(=O)O)cc2CCC(=O)O)ccc2c1OCCC2=O` [Example 163, 4-[5-[(3,4-Dihydro-4-oxo-8-propyl-2H-1-benzopyran-7-yl)oxy]pentyloxy]-1,3-benzenedipropanoic Acid] gave a Ki on LTB4 Receptor of 3 nM. Further, the ED50 in test [2] was 3.11 mg/kg.
Take `O=C(O)CCc1ccccc1OCCCCCOc1ccc2c(c1Cc1ccccc1)OCCC2=O` [Example 73, 2-[5-[[3,4-Dihydro-4-oxo-8-(phenylmethyl)-2H-1-benzopyran-7-yl]oxy]pentyloxy]benzenepropanoic Acid]: the ED50 was more than 10 mg/kg in test [1] and 0.13 mg/kg in test [2]. This compound also showed a Ki on LTB4 Receptor of 150 nM.
`CCCc1c(OCCCCCCc2cccc(OCCCCC(=O)N(C)C)c2CCC(=O)N(C)C)ccc2c1OCCC2=O` [Example 196, 2-[6-[(3,4-Dihydro-4-oxo-8-propyl-2H-1-benzopyran-7-yl)oxy]hexyl]-6-[[5-(dimethylamino)-5-oxopentyl]oxy]-N,N-dimethylbenzenepropanamide] displayed a Ki at LTB4 Receptor of 200 nM. In test [2], the ED50 was found to be 0.62 mg/kg.
For `CCCc1c(OCCCCCOc2ccc(OCCCCC(=O)O)cc2CCC(=O)O)ccc2c1OCCC2=O` [Example 58, 5-(4-Carboxybutoxy)-2-[5-[(3,4-dihydro-4-oxo-8-propyl-2H-1-benzopyran-7-yl)oxy]pentyloxy]benzenepropanoic Acid Hemihydrate] the same measures were 4 nM and 5.09 mg/kg.
For `O=C(O)CCCCCOc1cccc(CCCCCCOc2ccc3c(c2CCCc2ccccc2)OCCC3=O)c1CCC(=O)O` [Example 200, 2-[(5-Carboxypentyl)oxy]-6-[6-[[3,4-dihydro-4-oxo-8-(3-phenylpropyl)-2H-1-benzopyran-7-yl]oxy]hexyl]benzenepropanoic Acid], the results for the ED50 in test [1] and in test [2] were 0.16 mg/kg and 0.06 mg/kg, respectively. At LTB4 Receptor, this compound registered a Ki of 1 nM.
On LTB4 Receptor, `CCCc1c(OCCCCCOc2ccccc2CCCCC(=O)O)ccc2c1OCCC2=O` [Example 147, 2-[5-[(3,4-Dihydro-4-oxo-8-propyl-2H-1-benzopyran-7-yl)oxy]pentyloxy]benzenepentanoic Acid] registered a Ki of 200 nM. For the same compound, the ED50 in test [2] was 1.18 mg/kg.
Consider `CCCc1c(OCCCCCOc2ccc(CCCCC(=O)O)cc2CCC(=O)O)ccc2c1OCCC2=O` [Example 215, 3-(2-Carboxyethyl)-4-[[5-[(3,4-dihydro-4-oxo-8-propyl-2H-1-benzopyran-7-yl)oxy]pentyl]oxy]benzenepentanoic Acid], for which the ED50 in test [1] was 4.65 mg/kg; in test [2], 0.24 mg/kg. Besides, the Ki at LTB4 Receptor stood at 3 nM.
The compound `CCCc1c(OCCCCCOc2ccc(C(C)=O)cc2CCC(=O)O)ccc2c1OCCC2=O` [Example 33, 5-Acetyl-2-[5-[(3,4-dihydro-4-oxo-8-propyl-2H-1-benzopyran-7-yl)oxy]pentyloxy]benzenepropanoic Acid] yielded a Ki on LTB4 Receptor of 10 nM. The ED50 in test [2] was determined as 1.8 mg/kg.
For the compound `CCCc1c(OCCCCCCc2ccc(CCCCC(=O)O)cc2CCC(=O)O)ccc2c1OCCC2=O` [Example 219, 3-(2-Carboxyethyl)-4-[6-[(3,4-dihydro-4-oxo-8-propyl-2H-1-benzopyran-7-yl)oxy]hexyl]benzenepentanoic Acid], the ED50 in test [1] was more than 10 mg/kg; in test [2] it was 0.08 mg/kg. At LTB4 Receptor, this compound had an inhibition constant Ki of 1 nM.
